Assay [1] has as its system AMPAr currents in hippocampal CA1 pyramidal neurons. The assay is described as follows: whole-cell patch-clamp, isolated AMPAr EPSCs evoked by Schaffer collateral stimulation (series 2). The format is cell-based, C57Bl6/J mice. The conditions noted are these: after 10 min wash-out of NX218 250 μg/mL (T30); mean of 10 neurons. From the text: Twelve (C57Bl6/J) male mice 4-5 weeks-old were obtained from Charles River, France and housed in an animal facility. Animal care was compliant with national and local Ethics committee recommendations. Sagittal hippocampal brain slices were obtained using standard brain slicing methods (approximately 6 slices per mouse) (Knobloch et al. 2007). Mice were anesthetized with isoflurane and then decapitated. Brain was dissected out of the cranium and immediately immersed in ice-cold freshly prepared aCSF containing: 124 mM NaCl, 3.75 mM KCl, 2 mM MgSO4, 2 mM CaCl2, 26.5 mM NaHCO3, 1.25 mM NaH2PO4, 10 mM glucose, continuously oxygenated (pH=7.4) for a total duration of 3-4 minutes. Acute slices (350 μm thick) were prepared using a vibratome (VT 1000S; Leica Microsystems, Bannockburn, IL). Sections were incubated in standard aCSF at room temperature for at least 1 h before recordings. […]
The signal was amplified with an Axopatch 200B amplifier (Molecular Devices, Union City, CA), digitized by a Digidata 1550 interface (Molecular Devices) and […]. Recordings were acquired using Clampex (Molecular Devices) and analyzed with Clampfit (Molecular Devices). […]
On the technique in general: Patch clamp records ionic current or voltage across a cell membrane.

Assay [2] relates to scopolamine-induced spatial short-term working memory deficits in mice. The experiment in a line: Y-maze spontaneous alternation in the scopolamine mouse model of amnesia. The format is in vivo, Swiss mice. Here is the method:
Male Swiss mice, weighing 30-35 g, from JANVIER (Saint Berthevin, France), were housed in groups with access to food and water ad libitum, except during behavioral experiments. They were kept in a temperature and humidity-controlled animal facility on a 12 h/12 h light/dark cycle (lights off at 07:[…]). Mice were numbered by marking their tail with permanent markers. All animal procedures were conducted in strict adherence to the European Union directive of Sep. 22, 2010 (2010/63/UE). In each cage (n=6 per cage), treatment regimen was the same. Animals were tested in a random and blind manner.
Donepezil (DPZ) used as positive control was administered per os at a dose of 1 mg/kg once 1 h before the YM test.
Scopolamine was administered at a dose of 0.5 mg/kg by subcutaneous injection 30 minutes before the YM session.
After administration of compounds at different timepoints all animals were tested for spontaneous alternation performance in the YM, an index of spatial working memory. The YM was designed according to Itoh and collaborators (1993) and Hiramatsu and Inoue (1999) and is made of grey polyvinylchloride. Each arm is 40-cm long, 13-cm high, 3-cm wide at the bottom, 10-cm wide at the top, and converging at an equal angle. Each mouse was placed at the end of one arm and allowed to move freely through the maze during an 8-min session. The series of arm entries, including possible returns into the same arm, were checked visually. An alternation was defined as entries into all three arms on consecutive occasions. The number of maximum alternations is therefore the total number of arm entries minus two and the percentage of alternation was calculated as (actual alternations/maximum alternations)×100. Parameters included the percentage of alternation, called memory index, and total number of arm entries, called exploration index (Maurice et al., 1996, 1988; Meunier et al., 2006; Villard et al., 2009, 2011).
Animals showing an extreme behavior (alternation percentage <20% or >90% or number of arm entries <10) would have been discarded from the calculation. No animal was discarded accordingly.

This is an account of results in patent US20250177481A1, “SCO-spondin-derived polypeptides for enhancing synaptic transmission” (AXOLTIS PHARMA, priority 2021, published 2025).

Positions of bridges follow the written chain, without caps; N, C: chain ends. No end group written: not given here.

“W-S-G-W-S-S-C-S-R-S-C-G [NX218] (WSGWSSCSRSCG; disulfide 7-11 (inferred))”: the “Amplitude of evoked isolated AMPA excitatory postsynaptic currents” value in assay [1] is listed as 153 pA. In addition, the “effect on scopolamine-induced spatial short-term working memory impairments (Y-maze)” value in assay [2] (2.5 mg/kg i.p. (lowest tested dose) 24 h before the test) is “efficacy was already demonstrated”; in assay [2] (5 mg/kg i.p. 2 h before the test, data not shown), “only partial”; in assay [2] (5 mg/kg i.p. 24 h before the test, data not shown) it was “complete reversal effect”; in assay [2] (5 mg/kg i.p. 48 h before the test, data not shown), “partially blocked”; in assay [2] (10 mg/kg i.p. 48 h before the test, data not shown) it was “completely counteracted”; in assay [2] (15 mg/kg i.p. once 48 h before the test, data not shown), “partially blocked”. Further, the “dose with maximum effect on scopolamine-induced memory impairments (Y-maze)” value in assay [2] (i.p. once 24 h before the test, bell-shaped dose-response curve) worked out at 10 mg/kg. The “spontaneous alternance in Y-maze” value in assay [2] (scopolamine + 10 mg/kg i.p. 24 h before test, scopolamine alone 45, control 70, n=6, 10 mg/kg) is listed as 71%.
